The source of these data is patent US20260224758A1, “ALPHA-SYNUCLEIN BINDERS AND METHODS OF USE” (Merck Sharp & Dohme LLC, priority 2023, published 2026).

In the first test the target is T1, triton-extracted alpha-synuclein from PD Tissue (Homo sapiens, UniProt P37840).
T1 construct: tissue Analytic Biological Services Inc; host or cells: human PD temporal cortex grey matter, Triton X-100 insoluble pellet
The experiment in a line: Alpha-synuclein tissue homogenate binding assay (Assay 1), displacement of [^3H]-1000. Particulars: Aβ Tissue Ki / α-synuclein Tissue Ki. The method, then: Frozen human brain tissues from PD patients were purchased from Analytic Biological Services Inc. The samples were post-mortem tissues from donors with clinical diagnosis of late stage of PD. Alpha-synuclein, tau and amyloid burden was determined through a combination of immunohistochemistry on frozen thin coronal sections, as well as alpha Lisa-based quantification of protein levels in a detergent insoluble protein fraction. A tissue sample of temporal cortex was identified from one donor as having moderate to high alpha-synuclein burden, low amyloid and minimal to no tau pathology. The detergent insoluble fraction of temporal cortex from this patient was used to support homogenate binding studies. Grey matter was dissected out of the temporal cortex tissue with a dissecting blade and minced with fine dissecting scissors. […] Homogenates were centrifuged at 100,000×g for 45 minutes. The pellet was resuspended in TBS-TX buffer, using a Polytron at highest setting for 30 seconds at 4° C. Homogenates were centrifuged at 100,000×g for 45 minutes and the pellet was resuspended in TBS-TX buffer. A BCA protein assay was performed on the final homogenate to determine the protein concentration. […] For displacement a-synuclein binding assay, compounds and control were solvated in dimethyl sulfoxide (DMSO) and transferred using focused acoustic energy by an Echo 655 liquid handling instrument (Beckman Coulter, Indianapolis, IN) into designated wells of uniquely bar coded 96-well v-bottom low binding polypropylene microplates (Thermo Scientific, 249946). Compound dose response curves were prepared in a 10-point, 3-fold fashion within columns 2-11 of the microplate from high to low compound concentrations. […] Liquid-handling steps for dispensing insoluble fractions of PD brain homogenates and radioligand were performed using a Bravo automated liquid handling platform equipped with a 96LT disposable tip head (Agilent Technologies, Santa Clara. CA). […] The incubation was terminated by rapid filtration through UniFilter-96 GF/C microplates (pre-treated for 30 minutes with 0.2% Polyethylenimine at 4° C.) by using a FilterMate Harvester (PerkinElmer). […] The bottom of each UniFilter-96 GF/C microplate was adhesively sealed (PerkinElmer 6005199) prior to the addition of 50 μL MicroScint-20 liquid scintillation cocktail (PerkinElmer 6013621) to each well. A clear adhesive seal (TopSeal-A PLUS, PerkinElmer 6050185) was then applied to the top of each microplate and counted 1 minute/well on MicroBeta^2 system (PerkinElmer.
`COC[C@H]1CN(c2ncc(/C=C/c3ccc(-n4ccnc4)nc3)cn2)CCN1c1ncc(OCC(O)CF)cn1` (stereo partly drawn) [Example 39, 1-((2-((R)-4-(5-((E)-2-(6-(1H-imidazol-1-yl)pyridin-3-yl)vinyl)pyrimidin-2-yl)-2-(methoxymethyl)piperazin-1-yl)pyrimidin-5-yl)oxy)-3-fluoropropan-2-ol]: the “Selectivity ratio (Assay 2/Assay 1)” value turned out to be 7692. `COC[C@H]1CN(c2ncc(C#Cc3ccc(-n4ccnc4)nc3)cn2)CCN1c1cc(F)ncn1` [Example 12, (R)-5-((6-(1H-imidazol-1-yl)pyridin-3-yl)ethynyl)-2-(4-(6-fluoropyrimidin-4-yl)-3-(methoxymethyl)piperazin-1-yl)pyrimidine]: the “Selectivity ratio (Assay 2/Assay 1)” value is recorded as 3636. On to `FCCOC[C@H]1CN(c2ncc(/C=C/c3ccc(-n4ccnc4)nc3)cn2)CCN1c1ncccn1` [Example 3, (R,E)-5-(2-(6-(1H-imidazol-1-yl)pyridin-3-yl)vinyl)-2-(3-((2-fluoroethoxy)methyl)-4-(pyrimidin-2-yl)piperazin-1-yl)pyrimidine], for which the “Selectivity ratio (Assay 2/Assay 1)” value worked out at 8000.

The test is the same for the next values; noted with them: insoluble fraction of PD brain homogenate, [^3H]-1000 3.0 nM, Kd 0.90 nM; read-out: α-synuclein Tissue Ki (Assay 1).
`COC[C@H]1CN(c2ncc(C#Cc3ccc(-n4cnnc4)nc3)c(F)n2)CCN1c1ccncn1` [Example 58, (R)-5-((6-(4H-1,2,4-triazol-4-yl)pyridin-3-yl)ethynyl)-4-fluoro-2-(3-(methoxymethyl)-4-(pyrimidin-4-yl)piperazin-1-yl)pyrimidine]: the Ki (usually a measure of affinity in units of concentration, obtained from inhibition or displacement) turned out to be 1.67 nM. On to `COC[C@H]1CN(c2ncc(/C=C/c3ccc(-n4ccnc4)nc3)cn2)CCN1c1ncc(OCC(O)CF)cn1` (stereo partly drawn) [Example 39, 1-((2-((R)-4-(5-((E)-2-(6-(1H-imidazol-1-yl)pyridin-3-yl)vinyl)pyrimidin-2-yl)-2-(methoxymethyl)piperazin-1-yl)pyrimidin-5-yl)oxy)-3-fluoropropan-2-ol], for which the Ki stood at 0.52 nM.

In the case of `FCCOCCOC[C@H]1CN(c2ncc(C#Cc3ccc(-c4cnco4)nc3)cn2)CCN1c1ncncn1` [Example 48, (R)-5-(5-((2-(3-((2-(2-fluoroethoxy)ethoxy)methyl)-4-(1,3,5-triazin-2-yl)piperazin-1-yl)pyrimidin-5-yl)ethynyl)pyridin-2-yl)oxazole], the Ki worked out at 0.897 nM. On to `Cn1cc(-c2ncc(C#Cc3cnc(N4CCN(c5ncncn5)C[C@H]4COCCF)nc3)cn2)cn1` [Example 96, (S)-2-(3-((2-fluoroethoxy)methyl)-4-(5-((2-(1-methyl-1H-pyrazol-4-yl)pyrimidin-5-yl)ethynyl)pyrimidin-2-yl)piperazin-1-yl)-1,3,5-triazine], for which the Ki amounted to 5.51 nM. Same read-out and setting: then `COC[C@H]1CN(c2ncc(C#Cc3ccc(-c4cnn(CCF)c4)nc3)cn2)CCN1c1ncc(F)cn1` [Example 90, (R)-5-fluoro-2-(4-(5-((6-(1-(2-fluoroethyl)-1H-pyrazol-4-yl)pyridin-3-yl)ethynyl)pyrimidin-2-yl)-2-(methoxymethyl)piperazin-1-yl)pyrimidine], with 1.82 nM. On to `COC[C@H]1CN(c2ncc(C#Cc3cnc(-c4cnn(C)c4)nc3)cn2)CCN1c1cc(F)ncn1` [Example 94, (R)-2-(4-(6-fluoropyrimidin-4-yl)-3-(methoxymethyl)piperazin-1-yl)-5-((2-(1-methyl-1H-pyrazol-4-yl)pyrimidin-5-yl)ethynyl)pyrimidine], for which the Ki is 0.76 nM. Still for that read-out and setting: as for `COC[C@H]1CN(c2ncc(C#Cc3ccc(-c4cnn(C)c4)nc3)cn2)CCN1c1ncc(OCCF)cn1` [Example 92, (R)-5-(2-fluoroethoxy)-2-(2-(methoxymethyl)-4-(5-((6-(1-methyl-1H-pyrazol-4-yl)pyridin-3-yl)ethynyl)pyrimidin-2-yl)piperazin-1-yl)pyrimidine], the figure is 0.83 nM. Regarding `Nc1cnn(-c2ncc(C#Cc3cnc(N4CCN(c5ncncn5)[C@@H](COCCF)C4)nc3)cn2)c1` [Example 73, (R)-1-(5-((2-(3-((2-fluoroethoxy)methyl)-4-(1,3,5-triazin-2-yl)piperazin-1-yl)pyrimidin-5-yl)ethynyl)pyrimidin-2-yl)-1H-pyrazol-4-amine], the inhibition constant Ki came to 9.16 nM. The same measure, in the same setting: as for `Cn1cc(-c2ncc(C#Cc3cnc(N4CCN(c5ccncn5)[C@@H](COCCF)C4)nc3)cn2)cn1` [Example 53, (R)-2-(3-((2-fluoroethoxy)methyl)-4-(pyrimidin-4-yl)piperazin-1-yl)-5-((2-(1-methyl-1H-pyrazol-4-yl)pyrimidin-5-yl)ethynyl)pyrimidine], the figure is 0.32 nM; as for `COC[C@@H]1CN(c2ncncn2)CCN1c1ncc(C#Cc2cnc(-c3cnn(CCF)c3)nc2)cn1` [Example 87, (S)-2-(4-(5-((2-(1-(2-fluoroethyl)-1H-pyrazol-4-yl)pyrimidin-5-yl)ethynyl)pyrimidin-2-yl)-3-(methoxymethyl)piperazin-1-yl)-1,3,5-triazine], 0.89 nM; as for `COC[C@H]1CN(c2ncc(C#Cc3cnc(-c4cnn(CCF)c4)nc3)cn2)CCN1c1ncc(F)cn1` [Example 88, (R)-5-fluoro-2-(4-(5-((2-(1-(2-fluoroethyl)-1H-pyrazol-4-yl)pyrimidin-5-yl)ethynyl)pyrimidin-2-yl)-2-(methoxymethyl)piperazin-1-yl)pyrimidine], 0.99 nM. As for `OC[C@H]1CN(c2ncc(/C=C/c3ccc(-n4ccnc4)nc3)cn2)CCN1c1ncccn1` [Example 1, (R,E)-(4-(5-(2-(6-(1H-imidazol-1-yl)pyridin-3-yl)vinyl)pyrimidin-2-yl)-1-(pyrimidin-2-yl)piperazin-2-yl)methanol], the inhibition constant (Ki) is 1.6 nM. Still for that read-out and setting: as for `Cn1ccc(-c2ncc(C#Cc3cnc(N4CCN(c5ncncn5)[C@@H](COCCF)C4)nc3)cn2)n1` [Example 49, (R)-2-(2-((2-fluoroethoxy)methyl)-4-(5-((2-(1-methyl-1H-pyrazol-3-yl)pyrimidin-5-yl)ethynyl)pyrimidin-2-yl)piperazin-1-yl)-1,3,5-triazine], the figure is 2.91 nM; as for `FCCOC[C@H]1CN(c2ncc(C#Cc3cnc(-c4cnco4)nc3)cn2)CCN1c1ncccn1` [Example 93, (R)-5-(5-((2-(3-((2-fluoroethoxy)methyl)-4-(pyrimidin-2-yl)piperazin-1-yl)pyrimidin-5-yl)ethynyl)pyrimidin-2-yl)oxazole], 3.06 nM; as for `COC[C@H]1CN(c2ncc(C#Cc3ccc(-c4cnn(CCF)c4)nc3)cn2)CCN1c1ncncn1` [Example 47, (R)-2-(4-(5-((6-(1-(2-fluoroethyl)-1H-pyrazol-4-yl)pyridin-3-yl)ethynyl)pyrimidin-2-yl)-2-(methoxymethyl)piperazin-1-yl)-1,3,5-triazine], 0.694 nM. For the compound `COC[C@H]1CN(c2ncc(C#Cc3cnc(-c4cnn(CCF)c4)nc3)cn2)CCN1c1ccncn1` [Example 54, (R)-2-(1-(2-fluoroethyl)-1H-pyrazol-4-yl)-5-((2-(3-(methoxymethyl)-4-(pyrimidin-4-yl)piperazin-1-yl)pyrimidin-5-yl)ethynyl)pyrimidine], the inhibitory constant (Ki) came to 0.91 nM. Same read-out and setting: as for `COC[C@H]1CN(c2ncc(C#Cc3ccc(N4CCC(n5nccn5)CC4)nc3)cn2)CCN1c1ncccn1` [Example 76, (R)-5-((6-(4-(2H-1,2,3-triazol-2-yl)piperidin-1-yl)pyridin-3-yl)ethynyl)-2-(3-(methoxymethyl)-4-(pyrimidin-2-yl)piperazin-1-yl)pyrimidine], the figure is 1.15 nM; as for `FCCOC[C@H]1CN(c2ncc(/C=C/c3ccc(-n4ccnc4)nc3)cn2)CCN1c1ncccn1` [Example 3, (R,E)-5-(2-(6-(1H-imidazol-1-yl)pyridin-3-yl)vinyl)-2-(3-((2-fluoroethoxy)methyl)-4-(pyrimidin-2-yl)piperazin-1-yl)pyrimidine], 0.5 nM. On the same count and under the same terms, as for `FCCOCCOC[C@H]1CN(c2ncc(C#Cc3cnc(-c4cncnc4)nc3)cn2)CCN1c1ncncn1` [Example 79, (R)-5-((2-(3-((2-(2-fluoroethoxy)ethoxy)methyl)-4-(1,3,5-triazin-2-yl)piperazin-1-yl)pyrimidin-5-yl)ethynyl)-2,5′-bipyrimidine], the figure is 5.42 nM.

Staying with this test, now noted: read-out: α-synuclein Tissue Ki (Assay 1).
Consider `Cn1ccc(-c2ncc(C#Cc3cnc(N4CCN(c5ncc(F)cn5)[C@@H](COCCF)C4)nc3)cn2)n1` [Example 97, (R)-5-fluoro-2-(2-((2-fluoroethoxy)methyl)-4-(5-((2-(1-methyl-1H-pyrazol-3-yl)pyrimidin-5-yl)ethynyl)pyrimidin-2-yl)piperazin-1-yl)pyrimidine], for which the Ki was 4.31 nM. The same measure, in the same setting: as for `COC[C@H]1CN(c2ncc(C#Cc3ccc(-n4ccnc4)nc3)cn2)CCN1c1cc(F)ncn1` [Example 12, (R)-5-((6-(1H-imidazol-1-yl)pyridin-3-yl)ethynyl)-2-(4-(6-fluoropyrimidin-4-yl)-3-(methoxymethyl)piperazin-1-yl)pyrimidine], the figure is 1.1 nM; as for `Cn1cc(-c2ncc(/C=C/c3cnc(N4CCN(c5ncncn5)[C@@H](COCCF)C4)nc3)cn2)cn1` [Example 43, (R,E)-2-(2-((2-fluoroethoxy)methyl)-4-(5-(2-(2-(1-methyl-1H-pyrazol-4-yl)pyrimidin-5-yl)vinyl)pyrimidin-2-yl)piperazin-1-yl)-1,3,5-triazine], 1.22 nM.

In the case of `Cn1cc(-c2ncc(C#Cc3cnc(N4CCN(c5ncncn5)[C@@H](COCF)C4)nc3)cn2)cn1` [Example 95, (R)-2-(2-((fluoromethoxy)methyl)-4-(5-((2-(1-methyl-1H-pyrazol-4-yl)pyrimidin-5-yl)ethynyl)pyrimidin-2-yl)piperazin-1-yl)-1,3,5-triazine], the Ki is 1.3 nM.
